Results from ChEMBL document CHEMBL3621049, “Imidazole derivatives show anticancer potential by inducing apoptosis and cellular senescence” (2014).
Calls of active or inactive are those of the source.

Tests used:
Format in all cases: functional, cell-based
UO-31 = experiment: Growth inhibition of human UO31 cells at 10 uM by sulforhodamine B assay
SW-620 = experiment: Growth inhibition of human SW620 cells at 10 uM by sulforhodamine B assay
DU-145 = experiment: Growth inhibition of human DU145 cells at 10 uM by sulforhodamine B assay
MCF7 = experiment: Growth inhibition of human MCF7 cells at 10 uM by sulforhodamine B assay
HT-29 = experiment: Growth inhibition of human HT-29 cells at 10 uM by sulforhodamine B assay
SNB-75 = experiment: Growth inhibition of human SNB75 cells at 10 uM by sulforhodamine B assay
HCT-15 = experiment: Growth inhibition of human HCT15 cells at 10 uM by sulforhodamine B assay
A549 = experiment: Growth inhibition of human A549/ATCC cells at 10 uM by sulforhodamine B assay
SK-MEL-2 = experiment: Growth inhibition of human SK-MEL-2 cells at 10 uM by sulforhodamine B assay
CAKI-1 = experiment: Growth inhibition of human Caki1 cells at 10 uM by sulforhodamine B assay
LOX IMVI = experiment: Growth inhibition of human LOXIMVI cells at 10 uM by sulforhodamine B assay
UACC-257 = experiment: Growth inhibition of human UACC257 cells at 10 uM by sulforhodamine B assay
TK-10 = experiment: Growth inhibition of human TK10 cells at 10 uM by sulforhodamine B assay
HL-60(TB) = experiment: Growth inhibition of human HL-60(TB) cells at 10 uM by sulforhodamine B assay
Malme-3M = experiment: Growth inhibition of human MALME-3M cells at 10 uM by sulforhodamine B assay
IGROV-1 = experiment: Growth inhibition of human IGROV1 cells at 10 uM by sulforhodamine B assay
HCC 2998 = experiment: Growth inhibition of human HCC2998 cells at 10 uM by sulforhodamine B assay
NCI-H226 = experiment: Growth inhibition of human NCI-H226 cells at 10 uM by sulforhodamine B assay
MDA-MB-468 = experiment: Growth inhibition of human MDA-MB-468 cells at 10 uM by sulforhodamine B assay
SK-MEL-28 = experiment: Growth inhibition of human SK-MEL-28 cells at 10 uM by sulforhodamine B assay
NCI-H460 = experiment: Growth inhibition of human NCI-H460 cells at 10 uM by sulforhodamine B assay
NCI-H322M = experiment: Growth inhibition of human NCI-H322M cells at 10 uM by sulforhodamine B assay
NCI-H522 = experiment: Growth inhibition of human NCI-H522 cells at 10 uM by sulforhodamine B assay
OVCAR-8 = experiment: Growth inhibition of human OVCAR8 cells at 10 uM by sulforhodamine B assay
HCT-116 = experiment: Growth inhibition of human HCT116 cells at 10 uM by sulforhodamine B assay
HOP-92 = experiment: Growth inhibition of human HOP92 cells at 10 uM by sulforhodamine B assay
NCI-H23 = experiment: Growth inhibition of human NCI-H23 cells at 10 uM by sulforhodamine B assay
SN12C = experiment: Growth inhibition of human SN12C cells at 10 uM by sulforhodamine B assay
SF-295 = experiment: Growth inhibition of human SF295 cells at 10 uM by sulforhodamine B assay
CCRF-CEM = experiment: Growth inhibition of human CCRF-CEM cells at 10 uM by sulforhodamine B assay
OVCAR-3 = experiment: Growth inhibition of human OVCAR3 cells at 10 uM by sulforhodamine B assay
SK-OV-3 = experiment: Growth inhibition of human SKOV3 cells at 10 uM by sulforhodamine B assay
SF-268 = experiment: Growth inhibition of human SF268 cells at 10 uM by sulforhodamine B assay
HOP-62 = experiment: Growth inhibition of human HOP62 cells at 10 uM by sulforhodamine B assay
UACC-62 = experiment: Growth inhibition of human UACC62 cells at 10 uM by sulforhodamine B assay
MDA-MB-231 = experiment: Growth inhibition of human MDA-MB-231 cells at 10 uM by sulforhodamine B assay
Hs-578T = experiment: Growth inhibition of human Hs 578T cells at 10 uM by sulforhodamine B assay
SR = experiment: Growth inhibition of human SR cells at 10 uM by sulforhodamine B assay
ACHN = experiment: Growth inhibition of human ACHN cells at 10 uM by sulforhodamine B assay
SF-539 = experiment: Growth inhibition of human SF539 cells at 10 uM by sulforhodamine B assay
K562 = experiment: Growth inhibition of human K562 cells at 10 uM by sulforhodamine B assay
KM12 = experiment: Growth inhibition of human KM12 cells at 10 uM by sulforhodamine B assay
T47D = experiment: Growth inhibition of human T47D cells at 10 uM by sulforhodamine B assay
M14 = experiment: Growth inhibition of human M14 cells at 10 uM by sulforhodamine B assay
U-251 = experiment: Growth inhibition of human U251 cells at 10 uM by sulforhodamine B assay
OVCAR-5 = experiment: Growth inhibition of human OVCAR5 cells at 10 uM by sulforhodamine B assay
NCI/ADR-RES = experiment: Growth inhibition of human NCI/ADR-RES cells at 10 uM by sulforhodamine B assay
A498 = experiment: Growth inhibition of human A498 cells at 10 uM by sulforhodamine B assay
MOLT-4 = experiment: Growth inhibition of human MOLT4 cells at 10 uM by sulforhodamine B assay
SNB-19 = experiment: Growth inhibition of human SNB19 cells at 10 uM by sulforhodamine B assay
RXF 393 = experiment: Growth inhibition of human RXF393 cells at 10 uM by sulforhodamine B assay
BT-549 = experiment: Growth inhibition of human BT549 cells at 10 uM by sulforhodamine B assay
MDA-MB-435 = experiment: Growth inhibition of human MDA-MB-435 cells at 10 uM by sulforhodamine B assay
RPMI-8226 = experiment: Growth inhibition of human RPMI8226 cells at 10 uM by sulforhodamine B assay
PC-3 = experiment: Growth inhibition of human PC3 cells at 10 uM by sulforhodamine B assay
COLO 205 = experiment: Growth inhibition of human COLO205 cells at 10 uM by sulforhodamine B assay
SK-MEL-5 = experiment: Growth inhibition of human SK-MEL-5 cells at 10 uM by sulforhodamine B assay
786-0 = experiment: Growth inhibition of human 786-0 cells at 10 uM by sulforhodamine B assay
OVCAR-4 = experiment: Growth inhibition of human OVCAR4 cells at 10 uM by sulforhodamine B assay

Measured: growth inhibition (GI)

COc1ccc(-c2nc(-c3ccccc3)c(-c3ccccc3)n2C2CC2)cc1OC1CCCC1
active: UO-31 | SW-620 | DU-145 | MCF7 | HT-29 | SNB-75 | HCT-15 | A549 | SK-MEL-2 | CAKI-1 | LOX IMVI | UACC-257 | TK-10 | HL-60(TB) | Malme-3M | IGROV-1 | HCC 2998 | NCI-H226 | MDA-MB-468 | SK-MEL-28 | NCI-H460 | NCI-H322M | NCI-H522 | OVCAR-8 | HCT-116 | HOP-92 | NCI-H23 | SN12C | SF-295 | CCRF-CEM | OVCAR-3 | SK-OV-3 | SF-268 | HOP-62 | UACC-62 | MDA-MB-231 | Hs-578T | SR | ACHN | SF-539 | K562 | KM12 | T47D | M14 | U-251 | OVCAR-5 | NCI/ADR-RES | A498 | MOLT-4 | SNB-19 | RXF 393 | BT-549 | MDA-MB-435 | RPMI-8226 | PC-3 | COLO 205 | SK-MEL-5 | 786-0 | OVCAR-4

CCCCCCn1c(-c2ccc(OC)c(OC3CCCC3)c2)nc(-c2ccccc2)c1-c1ccccc1
active: UO-31 | SW-620 | DU-145 | MCF7 | HT-29 | SNB-75 | HCT-15 | A549 | SK-MEL-2 | CAKI-1 | LOX IMVI | UACC-257 | TK-10 | HL-60(TB) | Malme-3M | IGROV-1 | HCC 2998 | NCI-H226 | MDA-MB-468 | SK-MEL-28 | NCI-H460 | NCI-H322M | NCI-H522 | OVCAR-8 | HCT-116 | HOP-92 | NCI-H23 | SN12C | SF-295 | CCRF-CEM | OVCAR-3 | SK-OV-3 | SF-268 | HOP-62 | UACC-62 | MDA-MB-231 | Hs-578T | SR | ACHN | SF-539 | K562 | KM12 | T47D | M14 | U-251 | OVCAR-5 | NCI/ADR-RES | A498 | MOLT-4 | SNB-19 | RXF 393 | BT-549 | MDA-MB-435 | RPMI-8226 | PC-3 | COLO 205 | SK-MEL-5 | 786-0 | OVCAR-4
